According to patent US5426103A, “Certain macrocyclic lactam derivatives” (Ciba-Geigy Corporation, priority 1993, dated 1995):

Columns and labels:
[1] = target: T1, neutral endopeptidase (NEP) (Rattus norvegicus, UniProt P07861); assay: inhibition of neutral endopeptidase (NEP), substrate not stated with the result; type: biochemical; conditions: for relative NEP inhibiting activity of isomers: compared with the other isomer; for IC50: substrate (GAAP or ANF) not stated
T1 sequence (P07861 1-750): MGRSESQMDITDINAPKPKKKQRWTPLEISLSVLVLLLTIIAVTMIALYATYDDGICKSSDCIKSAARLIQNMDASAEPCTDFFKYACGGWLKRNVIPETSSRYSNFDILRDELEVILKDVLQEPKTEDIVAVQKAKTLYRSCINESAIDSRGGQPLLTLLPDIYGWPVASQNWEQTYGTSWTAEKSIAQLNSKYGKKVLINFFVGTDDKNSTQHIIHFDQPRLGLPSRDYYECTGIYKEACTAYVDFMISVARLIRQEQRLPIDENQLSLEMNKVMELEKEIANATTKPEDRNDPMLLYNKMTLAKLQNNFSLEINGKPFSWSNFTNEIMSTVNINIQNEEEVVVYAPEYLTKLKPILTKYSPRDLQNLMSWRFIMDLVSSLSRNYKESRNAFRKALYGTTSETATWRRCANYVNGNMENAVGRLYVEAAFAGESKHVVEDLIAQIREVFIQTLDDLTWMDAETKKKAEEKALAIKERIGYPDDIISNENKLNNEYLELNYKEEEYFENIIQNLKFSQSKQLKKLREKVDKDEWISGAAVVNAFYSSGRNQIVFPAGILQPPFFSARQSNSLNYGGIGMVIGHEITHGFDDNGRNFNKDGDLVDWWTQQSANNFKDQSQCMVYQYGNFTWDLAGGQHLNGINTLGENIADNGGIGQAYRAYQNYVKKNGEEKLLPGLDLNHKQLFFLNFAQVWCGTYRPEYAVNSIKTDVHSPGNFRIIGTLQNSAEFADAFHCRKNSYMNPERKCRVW
Description: The in vitro inhibition of neutral endopeptidase (NEP) 3.4.24.11 can be determined as follows:
Neutral endopeptidase 3.4.24.11 activity is determined by the hydrolysis of the substrate glutaryl-Ala-Ala-Phe-2-naphthylamide (GAAP) using a modified procedure of Orlowski and Wilk (1981). The incubation mixture (total volume 125 μl) contains 4.2 μg of protein (rat kidney cortex membranes prepared by method of Maeda et al, 1983), 50 mM tris buffer, pH 7.4 at 25° C., 500 μM substrate (final concentration), and leucine aminopeptidase M (2.5 μg). The mixture is incubated for 10 minutes at 25° C. and 100 μl of fast garnet (250 μg fast garnet/ml of 10% Tween 20 in 1M sodium acetate, pH 4.2) is added. Enzyme activity is measured spectrophotometrically at 540 nm. One unit of NEP 24.11 activity is defined as 1 nmol of 2-naphthylamine released per minute at 25° C. at pH 7.4. IC50 values for inhibition of the enzyme are determined, i.e. the concentration of test compound required for 50% inhibition of the release of 2-naphthylamine.
Neutral endopeptidase activity is also determined using ANF as a substrate. A trial natriuretic factor degrading activity is determined by measuring the disappearance of rat-ANF (r-ANF) using a 3 minute reverse phase-HPLC separation. An aliquot of the enzyme in 50 mM Tris HCl buffer, pH 7.4, is preincubated at 37° C. for 2 minutes and the reaction is initiated by the addition of 4 nmol of r-ANF in a total volume of 50 μl. The reaction is terminated after 4 minutes with the addition of 30 μl of 0.27% trifluoroacetic acid (TFA). Forty microliters of the mixture is injected into a reverse phase-HPLC and analyzed using a C4 cartridge in a 3 minute, isocratic separation. Twenty-three percent of buffer B (0.1% TFA in 80% acetonitrile) is used. Buffer A is 0.1% TFA in water. One unit of activity is defined as the hydrolysis of 1 nmol of r-ANF per minute at 37° C. at pH 7.4. IC50 values for inhibition of the enzyme are determined, i.e. the concentration of test compound required for 50% inhibition of the hydrolysis of ANF.
The test compound is dissolved in dimethyl sulfoxide or 0.25M sodium bicarbonate solution, and the solution is diluted with pH 7.4 buffer to the desired concentration.
In vitro testing is most appropriate for the free mercapto carboxylic acids of the invention.

[2] = target: T2, Neutral endopeptidase 3.4.24.11 (Rattus norvegicus, UniProt P07861); assay: in vitro inhibition of neutral endopeptidase (NEP) 3.4.24.11, GAAP substrate; type: biochemical; conditions: pH 7.4, 25° C.
T2 construct: rat kidney cortex membranes prepared by method of Maeda et al, 1983; from tissue; host or cells: rat kidney cortex membranes
T2 sequence (P07861 1-750): T1 sequence (P07861 1-750)

[3] = target: T3, angiotensin-converting enzyme (ACE) (Oryctolagus cuniculus, UniProt P12822); assay: in vitro inhibition of the angiotensin-converting enzyme (ACE), hippuryl-histidyl-leucine substrate; type: biochemical, rabbit; conditions: 37° C., 30 minutes
T3 construct: angiotensin-converting enzyme preparation (from lungs of adult male rabbits); from tissue; host or cells: lungs of adult male rabbits
T3 sequence (P12822 34-1310): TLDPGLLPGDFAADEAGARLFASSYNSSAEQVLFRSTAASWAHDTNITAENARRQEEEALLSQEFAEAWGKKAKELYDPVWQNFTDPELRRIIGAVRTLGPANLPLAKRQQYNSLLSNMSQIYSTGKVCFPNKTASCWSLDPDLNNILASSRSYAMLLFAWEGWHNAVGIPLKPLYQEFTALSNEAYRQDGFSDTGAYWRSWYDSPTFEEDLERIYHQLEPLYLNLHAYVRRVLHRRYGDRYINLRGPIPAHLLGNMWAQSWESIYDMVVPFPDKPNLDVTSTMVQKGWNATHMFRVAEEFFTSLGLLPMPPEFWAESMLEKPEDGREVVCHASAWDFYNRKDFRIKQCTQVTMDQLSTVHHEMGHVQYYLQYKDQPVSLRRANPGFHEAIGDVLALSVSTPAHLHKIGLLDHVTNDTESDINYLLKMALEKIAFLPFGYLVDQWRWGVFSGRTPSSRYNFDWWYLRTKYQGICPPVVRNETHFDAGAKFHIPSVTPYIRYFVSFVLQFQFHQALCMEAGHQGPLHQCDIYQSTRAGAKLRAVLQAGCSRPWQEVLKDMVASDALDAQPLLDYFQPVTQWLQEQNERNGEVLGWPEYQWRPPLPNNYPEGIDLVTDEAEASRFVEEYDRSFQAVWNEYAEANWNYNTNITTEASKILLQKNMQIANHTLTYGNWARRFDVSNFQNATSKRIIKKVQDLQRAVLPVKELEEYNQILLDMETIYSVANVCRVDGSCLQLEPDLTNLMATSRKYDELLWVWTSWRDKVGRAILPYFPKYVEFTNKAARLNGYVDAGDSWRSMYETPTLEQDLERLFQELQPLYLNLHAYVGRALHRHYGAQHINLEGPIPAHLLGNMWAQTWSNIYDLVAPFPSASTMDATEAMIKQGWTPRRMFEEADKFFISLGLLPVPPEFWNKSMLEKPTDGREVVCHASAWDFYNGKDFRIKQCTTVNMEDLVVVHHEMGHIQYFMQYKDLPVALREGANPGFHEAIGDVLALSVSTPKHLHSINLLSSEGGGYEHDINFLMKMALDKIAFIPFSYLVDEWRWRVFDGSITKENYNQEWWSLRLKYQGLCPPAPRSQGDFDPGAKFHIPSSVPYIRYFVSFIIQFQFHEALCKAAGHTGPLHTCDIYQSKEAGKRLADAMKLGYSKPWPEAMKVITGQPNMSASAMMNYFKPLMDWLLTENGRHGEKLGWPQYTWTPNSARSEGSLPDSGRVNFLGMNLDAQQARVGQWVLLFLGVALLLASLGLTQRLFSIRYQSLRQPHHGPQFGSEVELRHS
Description: Biophys. Acta 293, p. 451 (1973). For example, said compounds are dissolved at about 1 mM concentration in phosphate buffer. To 100 microliters of solutions of the test compound in phosphate buffer, diluted to the desired concentration, are added 100 microliters of 5 mM hippuryl-histidyl-leucine in phosphate buffer, followed by 50 microliters of the angiotensin-converting enzyme preparation (from lungs of adult male rabbits) in Tris buffer, containing potassium and magnesium chloride, as well as sucrose. Said solutions are incubated at 37° C. for 30 minutes and combined with 0.75 ml of 0.6N aqueous sodium hydroxide to stop further reaction. Then 100 microliters of a 0.2% solution of o-phthalaldehyde in methanol are added at room temperature, and 10 minutes later 100 microliters of 6N hydrochloric acid. These samples are read against water in a spectrophotometer set at 360 nm, and the optical densities thereof estimated. They are corrected for the standard curve via a conversion factor expressing nanomoles of histidyl-leucine formed during said 30 minute incubation period. The results are plotted against drug concentration to determine the IC50, i.e., the drug concentration which gives half the activity of the control sample containing no drug.

SMILES | relative NEP inhibiting activity of isomers [1] | IC50 [2] [nM] | IC50 [1] [nM] | IC50 [3] [nM]
O=C1N[C@@H](C(=O)O)CCCCCC[C@@H]1CS (relative stereo) [trans 3-mercaptomethyl-2-oxo-1-azacyclodecane-10-carboxylic acid] | more active neutral endopeptidase (NEP) inhibiting diastereoisomer | ~3 | – | –
CC(=O)SC[C@H]1CCCCCC[C@H](C(=O)O)NC1=O (relative stereo) [Example 16, trans 3-(acetylthiomethyl)-2-oxo-1-azacyclodecane-10-carboxylic acid] | more active NEP inhibiting enantiomer | – | – | –
O=C1N[C@H](C(=O)O)CSCCCCCCCCC1CS (single isomer, unassigned) [Example 35(b)] | more active NEP inhibiting isomer | – | – | –
COC(=O)C1CCCCCCCCCCC(CSC(C)=O)C(=O)N1 (single isomer, unassigned) [Example 24 (minor isomer), methyl 3-(acetylthiomethyl)-2-oxo-1-azacyclotetradecane-14-carboxylate] | more active NEP inhibiting isomer | – | – | –
O=C1NC(C(=O)O)CCCCCCCCCCC1CS (stereo not drawn) [3-mercaptomethyl-2oxo-1-azacyclotetradecane-14-carboxylic acid] | – | – | ~30 | ~45
O=C1NC(C(=O)O)CCCCCCCCCCC1CS (single isomer, unassigned) [Example 25(b), 3-mercaptomethyl-2-oxo-1-azacyclotetradecane-14-carboxylic acid] | more active NEP inhibiting isomer | – | – | –
O=C1N[C@H](C(=O)O)CSCCCCCCCC1CS (single isomer, unassigned) | more active NEP inhibiting isomer | – | 18 | 12
O=C1N[C@@H](C(=O)O)CCCCCC[C@H]1CS (relative stereo) [Example 2(b), 3-mercaptomethyl-2-oxo-1-azacyclodecane-10-carboxylic acid] | less active diastereoisomer | – | – | –
